Eight compounds from ChEMBL document CHEMBL4043117, “Potential peptidic proteasome inhibitors by incorporation of an electrophilic trap based on amino acid derived α-substituted sulfonyl fluorides” (Bioorg Med Chem, 2017) can be followed below.

SMILES strings stand for the structures. The source made the active and inactive calls. No cut-off for these calls is given here.

For series [1], the species on record is Homo sapiens. The series is described as follows: Inhibition of human erythrocyte 20S proteasome at 0.002 to 400 uM using Suc-LLVY-AMC substrate incubated for 1 hr by fluorescence assay.
The species named for series [2] is Homo sapiens. The series is described as follows: Inhibition of human erythrocyte 20S proteasome at 0.002 to 400 uM using compounds dissolved in 20% v/v DMSO in presence of Suc-LLVY-AMC substrate incubated for 1 hr by fluorescence assay.
Series [3] is described as follows: Stability in PBS buffer at pH 7.4 assessed as half life for compound hydrolysis by HPLC method. Format: physicochemical.
Series [4] is described as follows: Stability in PBS buffer at pH 8 assessed as half life for compound hydrolysis by HPLC method. The class given is physicochemical.
Series [5] is described as follows: Stability in PBS buffer at pH 6.5 assessed as half life for compound hydrolysis by HPLC method. The class given is physicochemical.

`CC(C)C[C@H](NC(=O)[C@H](CCc1ccccc1)NC(=O)CN1CCOCC1)C(=O)N[C@@H](Cc1ccccc1)C(=O)NC[C@H](Cc1ccccc1)S(=O)(=O)F`: the inhibition result in the series listed under Homo sapiens [1] and in the series listed under Homo sapiens [2] was “inactive” in each case.
As for `CC(C)C[C@H](NC(=O)OCc1ccccc1)C(=O)N[C@@H](CC(C)C)C(=O)N[C@@H](CC(C)C)C(=O)NC[C@H](Cc1ccccc1)S(=O)(=O)F`, the inhibition result in the series filed under Homo sapiens [1] and in the series listed under Homo sapiens [2] was “inactive” throughout.
In the case of `CC(C)C[C@@H](CNC(=O)[C@H](Cc1ccccc1)NC(=O)[C@H](CC(C)C)NC(=O)[C@H](CCc1ccccc1)NC(=O)CN1CCOCC1)S(=O)(=O)F`, the inhibition result in the series listed under Homo sapiens [1] and in the series filed under Homo sapiens [2] was “inactive” throughout.
On to `CC(C)C[C@@H](CS(=O)(=O)F)NC(=O)[C@H](CC(C)C)NC(=O)[C@H](CC(C)C)NC(=O)OCc1ccccc1`, for which, in the series listed under Homo sapiens [1], the inhibition result was “Active”. In addition, the half-life in series [3], in series [4] and in series [5] was 600 to 720 min each time.
Regarding `CC(C)C[C@@H](CNC(=O)[C@H](CC(C)C)NC(=O)[C@H](CC(C)C)NC(=O)[C@H](CC(C)C)NC(=O)OCc1ccccc1)S(=O)(=O)F`, the inhibition result in the series listed under Homo sapiens [1] and in the series listed under Homo sapiens [2] was “inactive” in each case. The half-life in series [3], in series [4] and in series [5] was 300 to 420 min in each case.
Regarding `CC(C)C[C@H](NC(=O)OCc1ccccc1)C(=O)N[C@@H](CC(C)C)C(=O)NC[C@H](Cc1ccccc1)S(=O)(=O)F`, the inhibition entry in the series listed under Homo sapiens [1] and in the series listed under Homo sapiens [2] was “inactive” each time.
Take `CC(C)C[C@@H](CS(=O)(=O)F)NC(=O)[C@H](CC(C)C)NC(=O)[C@H](CC(C)C)NC(=O)[C@H](CC(C)C)NC(=O)OCc1ccccc1`: the inhibition result in the series filed under Homo sapiens [1] was “Active”. Further, the half-life in series [3], in series [4] and in series [5] was 600 to 720 min in each case.
On to `CC(C)C[C@@H](CNC(=O)[C@H](CC(C)C)NC(=O)[C@H](CC(C)C)NC(=O)OCc1ccccc1)S(=O)(=O)F`, for which the inhibition result in the series listed under Homo sapiens [1] and in the series filed under Homo sapiens [2] was “inactive” in each case. The half-life in series [3], in series [4] and in series [5] was 300 to 420 min in each case.
